From patent US11912703B2, “6-azaindole compounds” (BRISTOL-MYERS SQUIBB COMPANY, priority 2017, dated 2024)
Read-outs that look alike come from different tables or passages of the source.

What was measured:
[1] = biological target: human TLR7 (Homo sapiens (Human), UniProt Q9NYK1); test: TLR7 inhibition reporter assay (HEK-Blue SEAP); assay type: cell-based; conditions: HEK-Blue cells overexpressing human TLR7, gardiquimod 7.5 μM stimulation
[2] = biological target: human TLR8 (Homo sapiens (Human), UniProt Q9NR97); test: TLR8 inhibition reporter assay (HEK-Blue SEAP);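 note: SEAP driven by IFN-β minimal promoter with five NF-κB and AP-1 sites, compounds tested 0.05 nM to 50 µM, 22 h incubation, inhibition relative to agonist plus DMSO wells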
[3] = biological target: human TLR9 (Homo sapiens (Human), UniProt Q9NR96); test: TLR9 inhibition reporter assay (HEK-Blue SEAP);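 note: SEAP driven by IFN-β minimal promoter carrying five NF-κB and AP-1 sites, 22 h at 37 °C, compounds 0.05 nM–50 µM, inhibition scaled between agonist-plus-DMSO and reference-inhibitor wells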
Description: HEK-Blue™-cells (Invivogen) overexpressing human TLR7, TLR8 or TLR9 receptors were used for screening inhibitors of these receptors using an inducible SEAP (secreted embryonic alkaline phosphatase) reporter gene under the control of the IFN-β minimal promoter fused to five NF-κB and AP-1-binding sites. Briefly, cells are seeded into Greiner 384 well plates (15000 cells per well for TLR7, 20,000 for TLR8 and 25,000 for TLR9) and then treated with test compounds in DMSO to yield a final dose response concentration range of 0.05 nM-50 μM. After a 30 minute compound pre-treatment at room temperature, the cells are then stimulated with a TLR7 ligand (gardiquimod at a final concentration of 7.5 μM), TLR8 ligand (R848 at a final concentration of 15.9 μM) or TLR9 ligand (ODN2006 at a final concentration of 5 nM) to activate NF-κB and AP-1 which induce the production of SEAP. After a 22 hour incubation at 37° C., 500 CO2, SEAP levels are determined with the addition of HEK-Blue™ Detection reagent (Invivogen), a cell culture medium that allows for detection of SEAP, according to manufacturer's specifications.

[4] = read-out: TLR8 IC50; HEK-Blue cells overexpressing human TLR8, R848 15.9 μM stimulation, SEAP reporter
[5] = read-out: TLR9 IC50; HEK-Blue cells overexpressing human TLR9, ODN2006 5 nM stimulation, SEAP reporter
[6] = read-out: TLR8 IC50; HEK-Blue cells overexpressing human TLR8; R848 15.9 μM stimulation; SEAP reporter
[7] = read-out: TLR9 IC50; HEK-Blue cells overexpressing human TLR9; ODN2006 5 nM stimulation; SEAP reporter

Chain of human TLR9 (Q9NR96 26-1032): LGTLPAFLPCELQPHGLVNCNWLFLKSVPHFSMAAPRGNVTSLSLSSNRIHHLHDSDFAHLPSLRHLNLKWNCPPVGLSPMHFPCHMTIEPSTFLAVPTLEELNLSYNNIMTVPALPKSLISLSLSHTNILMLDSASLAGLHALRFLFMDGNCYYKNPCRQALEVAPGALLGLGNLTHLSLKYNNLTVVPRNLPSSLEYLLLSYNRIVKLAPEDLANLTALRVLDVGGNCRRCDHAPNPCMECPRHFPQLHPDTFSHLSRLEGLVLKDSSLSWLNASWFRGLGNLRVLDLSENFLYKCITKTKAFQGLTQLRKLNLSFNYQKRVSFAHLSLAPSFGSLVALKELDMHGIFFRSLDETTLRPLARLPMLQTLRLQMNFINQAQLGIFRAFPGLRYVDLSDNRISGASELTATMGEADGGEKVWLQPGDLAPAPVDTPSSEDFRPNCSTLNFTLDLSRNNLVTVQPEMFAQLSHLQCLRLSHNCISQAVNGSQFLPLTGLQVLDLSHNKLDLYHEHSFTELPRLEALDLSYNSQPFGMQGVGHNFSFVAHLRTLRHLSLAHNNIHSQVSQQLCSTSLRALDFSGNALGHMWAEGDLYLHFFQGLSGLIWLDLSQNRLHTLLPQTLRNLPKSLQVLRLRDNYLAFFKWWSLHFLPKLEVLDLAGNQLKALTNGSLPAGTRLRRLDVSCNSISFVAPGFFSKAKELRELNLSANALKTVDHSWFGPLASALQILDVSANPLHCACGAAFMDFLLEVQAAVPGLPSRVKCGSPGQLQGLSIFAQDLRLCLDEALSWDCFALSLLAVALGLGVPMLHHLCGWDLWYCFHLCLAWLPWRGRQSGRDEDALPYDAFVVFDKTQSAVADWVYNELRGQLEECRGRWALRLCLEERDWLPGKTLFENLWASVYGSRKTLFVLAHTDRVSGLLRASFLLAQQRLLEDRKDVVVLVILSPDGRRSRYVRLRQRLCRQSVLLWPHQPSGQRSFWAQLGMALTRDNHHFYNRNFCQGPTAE
Chain of human TLR8 (Q9NR97 27-1041): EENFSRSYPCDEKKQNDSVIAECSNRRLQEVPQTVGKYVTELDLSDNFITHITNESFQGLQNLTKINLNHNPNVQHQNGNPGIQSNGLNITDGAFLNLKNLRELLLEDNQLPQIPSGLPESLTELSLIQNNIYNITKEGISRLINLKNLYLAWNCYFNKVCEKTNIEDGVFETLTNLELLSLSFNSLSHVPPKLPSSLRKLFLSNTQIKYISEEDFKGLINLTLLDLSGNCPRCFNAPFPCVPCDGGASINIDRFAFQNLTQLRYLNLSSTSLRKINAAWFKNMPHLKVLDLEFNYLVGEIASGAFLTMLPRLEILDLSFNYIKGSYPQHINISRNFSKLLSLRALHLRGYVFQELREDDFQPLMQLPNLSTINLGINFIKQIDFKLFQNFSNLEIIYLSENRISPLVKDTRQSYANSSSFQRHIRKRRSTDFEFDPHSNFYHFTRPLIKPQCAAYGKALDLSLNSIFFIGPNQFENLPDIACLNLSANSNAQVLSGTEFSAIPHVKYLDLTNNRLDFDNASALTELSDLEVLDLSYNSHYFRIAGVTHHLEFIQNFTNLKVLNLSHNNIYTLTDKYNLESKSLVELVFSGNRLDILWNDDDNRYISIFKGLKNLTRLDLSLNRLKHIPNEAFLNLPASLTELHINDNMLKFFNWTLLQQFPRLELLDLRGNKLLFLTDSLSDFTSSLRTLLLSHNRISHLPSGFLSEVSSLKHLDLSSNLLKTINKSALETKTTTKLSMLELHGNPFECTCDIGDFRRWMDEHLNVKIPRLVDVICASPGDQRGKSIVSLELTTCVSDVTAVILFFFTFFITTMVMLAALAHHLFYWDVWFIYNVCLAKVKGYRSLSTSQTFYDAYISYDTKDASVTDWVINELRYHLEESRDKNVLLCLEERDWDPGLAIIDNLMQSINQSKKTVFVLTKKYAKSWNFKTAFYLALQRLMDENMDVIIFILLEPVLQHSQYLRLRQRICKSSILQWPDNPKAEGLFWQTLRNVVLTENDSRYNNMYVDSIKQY
Chain of human TLR7 (Q9NYK1 27-1049): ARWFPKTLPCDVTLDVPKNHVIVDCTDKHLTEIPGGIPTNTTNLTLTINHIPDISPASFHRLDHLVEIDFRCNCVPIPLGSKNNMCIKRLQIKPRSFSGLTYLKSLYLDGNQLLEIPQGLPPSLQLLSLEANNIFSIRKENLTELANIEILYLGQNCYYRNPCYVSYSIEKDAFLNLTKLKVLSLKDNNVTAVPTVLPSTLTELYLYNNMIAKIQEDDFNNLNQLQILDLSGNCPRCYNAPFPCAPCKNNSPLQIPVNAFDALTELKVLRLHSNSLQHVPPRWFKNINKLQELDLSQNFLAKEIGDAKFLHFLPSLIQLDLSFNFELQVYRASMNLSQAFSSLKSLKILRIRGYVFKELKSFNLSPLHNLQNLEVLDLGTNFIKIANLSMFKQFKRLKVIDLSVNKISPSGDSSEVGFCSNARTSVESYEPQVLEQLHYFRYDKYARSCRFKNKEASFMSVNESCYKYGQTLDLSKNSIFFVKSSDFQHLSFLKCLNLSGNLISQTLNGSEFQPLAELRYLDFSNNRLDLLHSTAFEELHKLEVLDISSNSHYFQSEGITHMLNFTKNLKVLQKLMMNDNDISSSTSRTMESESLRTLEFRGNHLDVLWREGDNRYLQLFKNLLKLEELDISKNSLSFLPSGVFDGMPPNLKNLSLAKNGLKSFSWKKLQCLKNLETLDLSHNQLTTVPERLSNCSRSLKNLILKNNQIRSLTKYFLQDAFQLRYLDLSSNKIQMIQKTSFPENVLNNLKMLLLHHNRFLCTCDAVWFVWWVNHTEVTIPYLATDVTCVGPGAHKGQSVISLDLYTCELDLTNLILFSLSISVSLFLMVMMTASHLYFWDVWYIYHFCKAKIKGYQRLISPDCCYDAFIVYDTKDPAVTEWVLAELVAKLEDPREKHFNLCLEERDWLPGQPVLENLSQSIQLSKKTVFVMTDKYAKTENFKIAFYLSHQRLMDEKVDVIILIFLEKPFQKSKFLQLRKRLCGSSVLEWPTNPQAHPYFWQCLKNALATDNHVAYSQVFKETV

Row | IC50 [1] | IC50 [2, 4] | IC50 [3, 5] | IC50 [2, 6] | IC50 [3, 7] | SMILES
1 | 551 nM | 8220 nM | 26 nM |  |  | COc1ccc(-c2[nH]c3cnc(C4CCN(C5CCN(CC(C)C)CC5)CC4)cc3c2C)cc1OC [Example 9]
2 | 1.5 nM | 0.55 nM | 3010 nM |  |  | COc1cc(-c2[nH]c3cnc(N4CCC(N5CC6(COC6)C5)CC4)c(F)c3c2C(C)C)cn2ncnc12 [Example 254]
3 | 2.1 nM | 4 nM | 2760 nM |  |  | Cc1cc(-c2[nH]c3cnc(C4CCC(N(C)C(C)C)CC4)c(F)c3c2C(C)C)cn2ncnc12 (stereo not drawn) [Example 108]
4 | 1.3 nM | 1.6 nM | 1860 nM |  |  | COc1cc(-c2[nH]c3cnc(C4CCN(CC5(C)COC5)CC4)c(F)c3c2C(C)C)cn2ncnc12 [Example 17]
5 | 7.3 nM | 5 nM | 6310 nM |  |  | COc1cc(-c2[nH]c3cnc(N4CCN(CC(N)=O)CC4)c(C)c3c2C(C)C)cn2ncnc12 [Example 155]
6 | 6 nM | 39 nM | 5470 nM |  |  | COc1cc(-c2[nH]c3cnc(N4CC5(CN(CC6CC6)C5)C4)c(F)c3c2C(C)C)cn2ncnc12 [Example 374]
7 | 0.42 nM | 0.71 nM | 2290 nM |  |  | Cc1c(N2CCC(NCC3(C)COC3)CC2)ncc2[nH]c(-c3cc(C)c4ncnn4c3)c(C(C)C)c12 [Example 170]
8 | 1 nM | 0.48 nM | 3000 nM |  |  | Cc1c(-c2[nH]c3cnc(N4CCC(N5CC6(COC6)C5)CC4)c(F)c3c2C(C)C)cn2ncnc2c1C [Example 111]
9 | 42 nM | 35 nM | 648 nM |  |  | COc1cc(-c2[nH]c3cnc(C4CCC(NC5COC5)C4)cc3c2C(C)C)cn2ncnc12 (stereo not drawn) [Example 274]
10 | 12 nM | 13 nM | 9530 nM |  |  | Cc1cc(-c2[nH]c3cnc(C4CCC(NCC(C)(C)C)CC4)c(F)c3c2C(C)C)cn2ncnc12 (stereo not drawn) [Example 48]
11 | 0.49 nM | 0.41 nM | 3980 nM |  |  | COCCNC1CCN(c2ncc3[nH]c(-c4cc(OC)c5ncnn5c4)c(C(C)C)c3c2F)CC1 [Example 99]
12 | 4.3 nM | 4.7 nM | 1700 nM |  |  | Cc1c(-c2[nH]c3cnc(C4CCN(C(=O)CN(C)C)CC4)c(F)c3c2C(C)C)cn2ncnc2c1C [Example 29]
13 | 2.3 nM | 0.15 nM | 4060 nM |  |  | COc1cc(-c2[nH]c3cnc(N4CCN(CC5CC5)CC4)c(F)c3c2C(C)C)cn2ncnc12 [Example 390]
14 | 0.65 nM | 1.5 nM | 1110 nM |  |  | Cc1c(N2CCC(N3CCC3)CC2)ncc2[nH]c(-c3cc(C)c4ncnn4c3)c(C(C)C)c12 [Example 279]
15 | 21 nM | 10 nM | 37400 nM |  |  | COc1cc(-c2[nH]c3cnc(N4CC5(CN(CCS(C)(=O)=O)C5)C4)c(F)c3c2C(C)C)cn2ncnc12 [Example 357]
16 | 1.4 nM | 4.7 nM | 1080 nM |  |  | Cc1c(-c2[nH]c3cnc(C4CCC(NCC(F)F)CC4)cc3c2C(C)C)cn2ncnc2c1C (stereo not drawn) [Example 350]
17 | 24 nM | 7.7 nM | 294 nM |  |  | COc1cc(-c2[nH]c3cnc(C4CCC(NCC(C)(C)OC)C4)cc3c2C(C)C)cn2ncnc12 (stereo not drawn) [Example 96]
18 | 6 nM | 3.4 nM | 5110 nM |  |  | COc1cc(-c2[nH]c3cnc(N4CC5(CN(C)C5)C4)c(F)c3c2C(C)C)cn2ncnc12 [Example 378]
19 | 1.8 nM | 5.1 nM | 10300 nM |  |  | COc1cc(-c2[nH]c3cnc(N4CCN(C)C[C@H]4C)c(F)c3c2C(C)C)cn2ncnc12 [Example 436]
20 | 9 nM |  |  | 5.2 nM | 38800 nM | Cc1c(-c2[nH]c3cnc(N4CCN(CCS(C)(=O)=O)C[C@H]4C)c(F)c3c2C(C)C)cn2ncnc2c1C [Example 463]
21 | 0.52 nM | 1.2 nM | 1360 nM |  |  | Cc1cc(-c2[nH]c3cnc(C4CCC(N5CC6(COC6)C5)CC4)c(F)c3c2C(C)C)cn2ncnc12 (stereo not drawn) [Example 133]
22 | 1.6 nM | 3.8 nM | 2080 nM |  |  | Cc1cc(-c2[nH]c3cnc(C4CCN(C(C)C)CC4)c(F)c3c2C(C)C)cn2ncnc12 [Example 212]
23 | 8.3 nM | 14 nM | 23500 nM |  |  | Cc1c(N2CCC(N3CCNC(=O)C3)CC2)ncc2[nH]c(-c3cc(C)c4ncnn4c3)c(C(C)C)c12 [Example 284]
24 | 10 nM |  |  | 4.4 nM | > 50000 nM | Cc1c(-c2[nH]c3cnc(N4CCN(CC(C)C)C[C@H]4C)c(F)c3c2C(C)C)cn2ncnc2c1C [Example 460]
25 | 5.4 nM |  |  | 1.5 nM | 9020 nM | Cc1c(-c2[nH]c3cnc(N4CCN(C(C)C)C[C@H]4C)c(F)c3c2C(C)C)cn2ncnc2c1C [Example 461]

Row | IC50 [1] | IC50 [2, 4] | IC50 [3, 5] | IC50 [2, 6] | IC50 [3, 7] | SMILES
26 | 2.3 nM | 7.2 nM | 188 nM |  |  | COc1cc(-c2[nH]c3cnc(C4CCN(CCS(C)(=O)=O)CC4)c(C)c3c2C(C)C)cn2ncnc12 [Example 25]
27 | 1.5 nM |  |  | 2.6 nM | 812 nM | CCN(C)C1CCC(c2ncc3[nH]c(-c4cc(OC)c5ncnn5c4)c(C(C)C)c3c2F)CC1 (stereo not drawn) [Example 228]
28 | 20 nM | 7.1 nM | > 50000 nM |  |  | COc1cc(-c2[nH]c3cnc(N4CCN(CCS(C)(=O)=O)CC4)cc3c2C(C)C)cn2ncnc12 [Example 290]
29 | 1.1 nM | 1.7 nM | 1170 nM |  |  | Cc1c(N2CCC(NC34CC(C3)C4)CC2)ncc2[nH]c(-c3cc(C)c4ncnn4c3)c(C(C)C)c12 [Example 148]
30 | 29 nM | 97 nM | 1080 nM |  |  | COc1cc(-c2[nH]c3cnc(C4CCC(N5CC6(COC6)C5)C4)cc3c2C(C)C)cn2ncnc12 (stereo not drawn) [Example 209]
31 | 26 nM | 31 nM | 1110 nM |  |  | COc1cc(-c2[nH]c3cnc(C4CCC(NCC(C)(C)OC)C4)cc3c2C(C)C)cn2ncnc12 (stereo not drawn) [Example 123]
32 | 1.5 nM | 3 nM | 517 nM |  |  | COc1cc(-c2[nH]c3cnc(N4CCNCC4)c(C)c3c2C(C)C)cn2ncnc12 [Example 213, 6-(3-isopropyl-4-methyl-5-(piperazin-1-yl)-1H-pyrrolo [2,3-c]pyridin-2-yl)-8-methoxy-[1,2,4]triazolo[1,5-a]pyridine]
33 | 3.5 nM | 9 nM | 468 nM |  |  | COCCNC1CCC(c2cc3c(C(C)C)c(-c4cn5ncnc5c(C)c4C)[nH]c3cn2)CC1 (stereo not drawn) [Example 348]
34 | 99 nM | 19 nM | > 50000 nM |  |  | Cc1c(-c2[nH]c3cnc(N4CC5(CN(CCS(C)(=O)=O)C5)C4)c(F)c3c2C(C)C)cn2ncnc2c1C [Example 396]
35 | 7.3 nM | 49 nM | 133 nM |  |  | COc1cc(-c2[nH]c3cnc(C4CCC(N5CC6(COC6)C5)CC4)cc3c2C(C)C)cn2ncnc12 (stereo not drawn) [Example 309]
36 | 3.9 nM | 30 nM | 790 nM |  |  | COCCNC1CCC(c2cc3c(C(C)C)c(-c4cn5ncnc5c(C)c4C)[nH]c3cn2)CC1 (stereo not drawn) [Example 347]
37 | 0.35 nM | 1.2 nM | 2460 nM |  |  | COc1cc(-c2[nH]c3cnc(N4CCC(NC(C)C)CC4)c(C)c3c2C(C)C)cn2ncnc12 [Example 202]
38 | 0.74 nM | 0.58 nM | 2770 nM |  |  | Cc1c(-c2[nH]c3cnc(N4CCC(N5CCC5)CC4)c(F)c3c2C(C)C)cn2ncnc2c1C [Example 51]
39 | 33 nM | 22 nM | 5590 nM |  |  | COc1cc(-c2[nH]c3cnc(N4CC5(CNC5)C4)c(F)c3c2C(C)C)cn2ncnc12 [Example 355, 6-(4-fluoro-3-isopropyl-5-(2,6-diazaspiro[3.3]heptan-2-yl)-1H-pyrrolo[2,3-c]pyridin-2-yl)-8-methoxy-[1,2,4]triazolo[1,5-a]pyridine]
40 | 3.6 nM | 5.1 nM | 13100 nM |  |  | Cc1cc(-c2[nH]c3cnc(C4CCN(CCS(C)(=O)=O)CC4)c(F)c3c2C(C)C)cn2ncnc12 [Example 149]
41 | 3.1 nM | 6.5 nM | 7030 nM |  |  | Cc1cc(-c2[nH]c3cnc(C4CCN(CC(N)=O)CC4)c(F)c3c2C(C)C)cn2ncnc12 [Example 125]
42 | 7.5 nM | 16 nM | 2070 nM |  |  | CNCC(=O)N1CCC(c2ncc3[nH]c(-c4cc(C)nc(C)c4)c(C(C)C)c3c2F)CC1 [Example 214]
43 | 28 nM | 41 nM | 868 nM |  |  | COc1cc(-c2[nH]c3cnc(C4CCC(NC[C@@H](F)C(C)(C)O)CC4)c(C)c3c2C(C)C)cn2ncnc12 (stereo partly drawn) [Example 117]
44 | 3.4 nM | 4.5 nM | 455 nM |  |  | COc1cc(-c2[nH]c3cnc(C4CCC(NC(C)C)CC4)c(F)c3c2C(C)C)cn2ncnc12 (stereo not drawn) [Example 159]
45 | 5.7 nM |  |  | 1.6 nM | 16300 nM | Cc1c(-c2[nH]c3cnc(N4CCN(C5CCOCC5)C[C@H]4C)c(F)c3c2C(C)C)cn2ncnc2c1C [Example 456]
46 | 12 nM | 1.1 nM | 39500 nM |  |  | Cc1c(-c2[nH]c3cnc(N4CCN(CC(=O)N(C)C)CC4)c(F)c3c2C(C)C)cn2ncnc2c1C [Example 428]
47 | 1.8 nM | 1.5 nM | 1010 nM |  |  | COc1cc(-c2[nH]c3cnc(N4CCC(NC56CC(C5)C6)CC4)c(C)c3c2C(C)C)cn2ncnc12 [Example 56]
48 | 12 nM | 6.6 nM | 26500 nM |  |  | COc1cc(-c2[nH]c3cnc(N4CCN(CCS(C)(=O)=O)CC4)c(C)c3c2C(C)C)cn2ncnc12 [Example 186]
49 | > 3120 nM | > 3120 nM | 17900 nM |  |  | Cc1cc(-c2[nH]c3cnc(N4CCN(CC(=O)N(C)C)CC4)cc3c2C(C)C)cn2ncnc12 [Example 297]
